{
  "source": "patent US6342487B1",
  "about": "“Compositions containing at least one farnesyl transferase inhibitor and at least one topoisomerase inhibitor and compositions containing at least one farnesyl transferase inhibitor and at least one taxoid” (Aventis Pharma Rorer S.A., priority 1998, dated 2002)",
  "key": {"[1]": {"system": "human colon tumor HCT116", "assay": "Activity on the colon tumor HCT116 grafted by the subcutaneous route onto female nu/nu Swiss mice", "format": "in vivo", "procedure": "This efficacy can be quantified, for example, by the net log 10 of the killed cells which is determined according to the following formula:\nnet log 10 of the killed cells=[T-C (days)−duration of the treatment (days)]/[3.32·Td]\nin which T-C represents the delay in tumor growth which is the median time, in days, which the tumors of the treated group (T) and the tumors of the control group (C) took to reach a predetermined value (1 g for example) and Td represents the time, in days, necessary for the doubling of the volume of the tumor in the control animals [T. H. CORBETT et al., Cancer, 40, 2660-2680 (1977); F. M. SCHABEL et al., Cancer Drug Development, Part B, Methods in Cancer Research, 17, 3-51, New York, Academic Press Inc. (1979)].\nA product is considered as very active if net log 10 of the killed cells is greater than or equal to 2.8. […] In such a case, the net log 10 of the killed cells has a positive value.\nThe combination, used at its own maximum tolerated dose, in which each of the constituents will be present at a dose which is generally lower than or equal to its maximum tolerated dose, will show a therapeutic synergy when the net log 10 of the killed cells is higher than the value of the net log 10 of the killed cells of the better constituent when it is administered alone.\nThe efficacy of the combinations on solid tumors can be determined experimentally in the following manner:\nThe animals subjected to the experiment, generally mice, are grafted bilaterally by the subcutaneous route with 30 to 60 mg of a tumor fragment on day 0. In the case of treatment of advanced tumors, the tumors are allowed to develop to the desired size, the animals having insufficiently developed tumors being eliminated. The selected animals are divided as a function of their tumor weight in a homogeneous manner between the treated and control groups, before the start of the treatments. Chemotherapy generally commences 12 to 14 days after the implantation of the tumor and the animals are observed every day. The different groups of animals are weighed every day until the maximum loss of weight is reached and then the groups are weighed at least once per week until the end of the test. The tumors are measured 2 to 3 times per week, with the aid of a slide calliper, according to two measurements in mm which are then converted into tumor weight according to the following formula: […]\nThe tumors are measured two or three times per week until the tumor reaches approximately 2 g or until the death of the animal if this occurs before the tumor reaches 2 g. An autopsy is carried out on the animals at the time of sacrifice.\nThe antitumor activity is determined as a function of the different parameters recorded."}, "[2]": {"assay": "Toxicity of the combination of product A with irinotecan", "format": "in vivo", "settings": "in combination with the topoisomerase inhibitor irinotecan"}, "[3]": {"settings": "Table 1, tumor doubling time 3.4 days, 248 mg/kg per injection, days 14-25 (2x/d.)"}, "[4]": {"settings": "Table 1, tumor doubling time 3.4 days, 400 mg/kg per injection, days 14-25 (2x/d.)"}, "[5]": {"settings": "Table 1, tumor doubling time 3.4 days, 645 mg/kg per injection, days 14-25 (2x/d.)"}, "[6]": {"settings": "Table 2, tumor doubling time 4.5 days, 645 mg/kg per injection, days 14-25 (2x/d.)"}, "[7]": {"settings": "Table 1, tumor doubling time 3.4 days, doses 25 and 248 mg/kg per injection, days 14, 18, 22 (2x/d.) and 25-36 (2x/d.)"}, "[8]": {"settings": "Table 1, tumor doubling time 3.4 days, doses 25 and 400 mg/kg per injection, days 14, 18, 22 (2x/d.) and 25-36 (2x/d.)"}, "[9]": {"settings": "Table 1, tumor doubling time 3.4 days, doses 25 and 645 mg/kg per injection, days 14, 18, 22 (2x/d.) and 25-36 (2x/d.)"}, "[10]": {"settings": "Table 1, tumor doubling time 3.4 days, doses 41 and 248 mg/kg per injection, days 14, 18, 22 (2x/d.) and 25-36 (2x/d.)"}, "[11]": {"settings": "Table 1, tumor doubling time 3.4 days, doses 41 and 400 mg/kg per injection, days 14, 18, 22 (2x/d.) and 25-36 (2x/d.)"}, "[12]": {"settings": "Table 1, tumor doubling time 3.4 days, doses 41 and 645 mg/kg per injection, days 14, 18, 22 (2x/d.) and 25-36 (2x/d.)"}, "[13]": {"settings": "Table 2, tumor doubling time 4.5 days, 11.2 mg/kg per injection, days 14, 18, 22 (2x/d.)"}, "[14]": {"settings": "Table 2, tumor doubling time 4.5 days, 18.7 mg/kg per injection, days 14, 18, 22 (2x/d.)"}, "[15]": {"settings": "Table 2, tumor doubling time 4.5 days, 31.2 mg/kg per injection, days 14, 18, 22 (2x/d.)"}, "[16]": {"settings": "Table 2, tumor doubling time 4.5 days, 52.0 mg/kg per injection, days 14, 18, 22 (2x/d.)"}},
  "data": [
    {"smiles": "C=C(C(=O)N1C[C@@H]2[C@]3(c4ccc(C)cc4)CC[C@@H](c4ccccc43)[C@]2(C(=O)O)C1)c1ccccc1OC", "note": "(racemic) [A, (3aRS,4SR,9SR,9aRS)-4,9-ethano-2-[2-(2-methoxyphenyl)propenoyl]-9-(4-methylphenyl)-2,3,3a,4,9,9a-hexahydro-1H-benzo[f]isoindole-3a-carboxylic acid]", "values": [
      {"measurement": "(T-C)-(Duration of treatment)", "setting": "[1]; [3]", "result": -10.9, "unit": "days"},
      {"measurement": "Long-term survivors on day 154", "setting": "[1]; [3]", "result": "0/6"},
      {"measurement": "net log10 of killed cells", "setting": "[1]; [3]", "result": "−1.0"},
      {"measurement": "(T-C)-(Duration of treatment)", "setting": "[1]; [4]", "result": -4.2, "unit": "days"},
      {"measurement": "Long-term survivors on day 154", "setting": "[1]; [4]", "result": "0/6"},
      {"measurement": "net log10 of killed cells", "setting": "[1]; [4]", "result": "−0.4"},
      {"measurement": "(T-C)-(Duration of treatment)", "setting": "[1]; [5]", "result": -2.7, "unit": "days"},
      {"measurement": "Long-term survivors on day 154", "setting": "[1]; [5]", "result": "0/6"},
      {"measurement": "net log10 of killed cells", "setting": "[1]; [5]", "result": "−0.2"},
      {"measurement": "(T-C)-(Duration of treatment)", "setting": "[1]; [6]", "result": 6.9, "unit": "days"},
      {"measurement": "Long-term survivors on day 154", "setting": "[1]; [6]", "result": "0/5"},
      {"measurement": "net log10 of killed cells", "setting": "[1]; [6]", "result": 0.5},
      {"measurement": "toxicity in combination with irinotecan", "setting": "[2]", "result": "does not increase the toxicity of irinotecan"}
    ]},
    {"smiles": "CCc1c2c(nc3ccc(OC(=O)N4CCC(N5CCCCC5)CC4)cc13)-c1cc3c(c(=O)n1C2)COC(=O)[C@]3(O)CC", "note": "[Irinotecan, irinotecan]", "values": [
      {"measurement": "(T-C)-(Duration of treatment)", "setting": "[1]; [7]", "result": 19.1, "unit": "days"},
      {"measurement": "Long-term survivors on day 154", "setting": "[1]; [7]", "result": "1/6"},
      {"measurement": "net log10 of killed cells", "setting": "[1]; [7]", "result": 1.7},
      {"measurement": "Long-term survivors on day 154", "setting": "[1]; [8]", "result": "2/7"},
      {"measurement": "net log10 of killed cells", "setting": "[1]; [8]", "result": 3.3},
      {"measurement": "Long-term survivors on day 154", "setting": "[1]; [9]", "result": "3/8"},
      {"measurement": "net log10 of killed cells", "setting": "[1]; [9]", "result": 3.6},
      {"measurement": "Long-term survivors on day 154", "setting": "[1]; [10]", "result": "4/8"},
      {"measurement": "net log10 of killed cells", "setting": "[1]; [10]", "result": 3.3},
      {"measurement": "(T-C)-(Duration of treatment)", "setting": "[1]; [11]", "result": 55.9, "unit": "days"},
      {"measurement": "Long-term survivors on day 154", "setting": "[1]; [11]", "result": "4/7"},
      {"measurement": "net log10 of killed cells", "setting": "[1]; [11]", "result": 5.0},
      {"measurement": "Long-term survivors on day 154", "setting": "[1]; [12]", "result": "4/8"},
      {"measurement": "net log10 of killed cells", "setting": "[1]; [12]", "result": 3.4},
      {"measurement": "(T-C)-(Duration of treatment)", "setting": "[1]; [13]", "result": 8.3, "unit": "days"},
      {"measurement": "net log10 of killed cells", "setting": "[1]; [13]", "result": 0.6},
      {"measurement": "Long-term survivors on day 154", "setting": "[1]; [14]", "result": "0/5"},
      {"measurement": "net log10 of killed cells", "setting": "[1]; [14]", "result": 1.1},
      {"measurement": "Long-term survivors on day 154", "setting": "[1]; [15]", "result": "0/5"},
      {"measurement": "net log10 of killed cells", "setting": "[1]; [15]", "result": 1.0},
      {"measurement": "(T-C)-(Duration of treatment)", "setting": "[1]; [16]", "result": 19.5, "unit": "days"},
      {"measurement": "Long-term survivors on day 154", "setting": "[1]; [16]", "result": "0/5"},
      {"measurement": "net log10 of killed cells", "setting": "[1]; [16]", "result": 1.3},
      {"measurement": "(T-C)-(Duration of treatment)", "setting": "[1]; mouse, in vivo, 86 mg/kg", "result": "toxic"}
    ]}
  ]
}
